Results on one compound are retold here after patent US20230391826A1, “COMPOSITIONS AND METHODS FOR TREATING DISEASES” (Sanford Burnham Prebys Medical Discovery Institute, priority 2020, published 2023).

For one experiment, the target named is T1, EphA2 LBD (Homo sapiens, UniProt P29317).
T1 construct: made in house; host or cells: E. coli Origami 2(DE3)
The experiment in a line: Isothermal titration calorimetry (ITC) with soluble EphA2 LBD. The format is binding. As to the method: (FIG. 10A-10E) The EphA2 LBD was titrated at 200-250 μM into 10-12.5 μM of the indicated peptide.
For ITC, all peptides are dissolved in DMSO and both the EphA2 LBD and the peptides are diluted to obtain a final buffer containing 9.5 mM HEPES, pH 7.9, 95 mM NaCl, and 5% DMSO. The experiments are carried out at 296 K (23° C.) using an ITC200 calorimeter (Microcal). Two-microliter aliquots of a peptide solution are injected into the cell containing 205 μL EphA2 LBD. 200-400 μM peptides are titrated into 20-40 μM EphA2 LBD. Experimental data are analyzed using the Origin software package (Microcal). The integrated values for the reaction heats are normalized to the amount of injected peptide after blank subtraction.
Background: Isothermal titration calorimetry measures the heat released or taken up as one component is titrated into another.

A further experiment addresses EphA2 (Homo sapiens, UniProt P29317). The experiment in a line: Bias factor βlig (pY588 versus pAKT inhibition, PC3 cells, reference ephrinA1-Fc). The class given is cell-based. Set-up: EphA2 is the prevalent endogenously expressed EphA receptor in these cells; endogenous in cells; host or cells: PC3 prostate cancer cells. As to the method: FIG. 6 illustrates an example where Ligands can bias EphA2 signaling responses. The bias factor βlig was calculated for the indicated ligands using ephrinA1-Fc as the reference ligand. Statistical significance for the comparison of the different ligands with the reference ligand ephrinA1-Fc (βlig=0) was determined by one sample t test; *, P<0.05; **, P<0.01; ***, P<0.001; ****, P<0.0001.
FIG. 14A-14E illustrates an example where distinct factors are responsible for EphA2 biased signaling induced by different ligands. (FIG. 14A) Etop values for EphA2 Y588 phosphorylation, as in FIG. 2C. (FIG. 14B) Etop values for inhibition of AKT phosphorylation. (FIG. 14C) Graph of the ratios of the Etop values for EphA2 Y588 phosphorylation and inhibition of AKT phosphorylation, which are used in the βlig calculation. (FIG. 14D) Graph of the ratios of the EC50 values for EphA2 Y588 phosphorylation and inhibition of AKT phosphorylation, which are used in the βlig calculation. (FIG. 14E) Equation used to calculate the bias factor βlig for each ligand. The terms of the equation are rearranged, compared to equation (1) in the Materials and Methods, to better conform to the graphs in FIG. 14A-14D. **, P<0.01; ***, P<0.001; ****, P<0.0001; ns, not significant for the comparison with ephrinA1-Fc by one-way ANOVA and Dunnett's posthoc test.
The possibility of EphA2 biased signaling by analyzing the dose-response curves obtained with endogenous EphA2 in PC3 cells (FIG. 2A) was explored using approaches developed for GPCRs. This involves using EphA2 Y588 phosphorylation and AKT phosphorylation quantified as a function of ligand concentration to determine and compare the potency (EC50) and efficacy (Etop) for the two responses induced by different ligands. Remarkably, large differences among the ligands in the Etop values for Y588 phosphorylation (FIGS. 2C, 2D and 14A), but not in the Etop values for AKT inhibition (FIGS. 2E and 14B), were observed. In terms of relative efficacies for pY588 and pAKT inhibition, the C-terminally linked dimers and monomeric ligands behave differently from ephrinA1-Fc, while the N-terminally linked dimers and the head-to-tail dimer (8) are similar to ephrinA1-Fc (FIG. 14C). […] Thus, the type of linkage affects EphA2 signaling properties induced by the dimeric peptides.
The determined EC50 and Etop values allowed us to calculate the bias factor βlig for the two different responses induced by the various ligands relative to ephrinA1-Fc as the reference ligand (FIG. 14E). […] Remarkably, the bias originates from different mechanisms that depend on the class of ligands, with the N-terminally linked and head-to-tail dimers modulating relative potencies and the C-terminally-linked dimers and monomers modulating relative efficacies.

Like-named read-outs stand apart in the source and are kept apart here.

T1 sequence (P29317 28-200): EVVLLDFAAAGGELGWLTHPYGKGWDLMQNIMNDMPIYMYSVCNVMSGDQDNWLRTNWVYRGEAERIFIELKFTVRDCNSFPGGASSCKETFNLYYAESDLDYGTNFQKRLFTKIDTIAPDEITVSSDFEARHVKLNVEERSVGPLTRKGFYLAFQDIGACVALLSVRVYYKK
EphA2, sequence (P29317 24-976): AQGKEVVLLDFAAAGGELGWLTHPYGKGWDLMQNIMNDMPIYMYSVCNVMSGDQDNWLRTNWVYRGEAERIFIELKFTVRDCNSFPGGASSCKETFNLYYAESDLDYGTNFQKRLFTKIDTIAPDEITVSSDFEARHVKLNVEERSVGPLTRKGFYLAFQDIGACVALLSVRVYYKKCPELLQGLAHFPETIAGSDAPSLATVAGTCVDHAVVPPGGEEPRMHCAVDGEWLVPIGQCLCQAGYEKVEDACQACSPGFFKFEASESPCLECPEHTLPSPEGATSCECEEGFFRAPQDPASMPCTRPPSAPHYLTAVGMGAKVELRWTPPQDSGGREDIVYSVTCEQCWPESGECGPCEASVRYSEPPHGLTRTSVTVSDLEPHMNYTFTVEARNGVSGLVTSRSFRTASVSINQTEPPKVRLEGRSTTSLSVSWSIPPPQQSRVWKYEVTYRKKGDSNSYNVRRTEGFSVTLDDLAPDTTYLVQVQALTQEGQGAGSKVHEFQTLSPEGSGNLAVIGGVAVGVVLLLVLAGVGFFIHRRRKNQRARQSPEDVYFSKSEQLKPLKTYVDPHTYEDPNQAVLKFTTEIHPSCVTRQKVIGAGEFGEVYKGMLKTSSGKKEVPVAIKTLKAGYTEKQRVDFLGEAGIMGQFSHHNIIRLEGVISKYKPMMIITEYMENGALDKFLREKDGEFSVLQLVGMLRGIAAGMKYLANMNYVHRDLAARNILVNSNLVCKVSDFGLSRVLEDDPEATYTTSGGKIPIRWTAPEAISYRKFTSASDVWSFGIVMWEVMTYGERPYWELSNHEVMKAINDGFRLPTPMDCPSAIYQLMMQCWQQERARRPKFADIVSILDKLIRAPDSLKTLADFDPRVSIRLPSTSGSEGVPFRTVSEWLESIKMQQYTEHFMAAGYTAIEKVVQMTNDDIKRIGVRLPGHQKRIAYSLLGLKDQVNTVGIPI

Usually Kd stands for the equilibrium constant for the complex coming apart. A higher Kd goes with a looser complex. Consider `CC(C)C[C@H](NC(=O)[C@H](Cc1c[nH]c2ccccc12)NC(=O)[C@H](C)NC(=O)CNC(=O)[C@@H](N)CSSC[C@H](N)C(=O)NCC(=O)N[C@@H](C)C(=O)N[C@@H](Cc1c[nH]c2ccccc12)C(=O)N[C@@H](CC(C)C)C(=O)N[C@@H](C)C(=O)N[C@@H](Cc1ccc(O)cc1)C(=O)N1CCC[C@H]1C(=O)N[C@@H](CC(=O)O)C(=O)N[C@@H](CO)C(=O)N[C@H](C(=O)N1CCC[C@H]1C(=O)N[C@@H](Cc1ccc(O)cc1)C(=O)N[C@@H](CCCNC(=N)N)C(=O)N1CCC[C@H]1C(=O)N[C@@H](CCCCN)C(=O)O)C(C)C)C(=O)N[C@@H](C)C(=O)N[C@@H](Cc1ccc(O)cc1)C(=O)N1CCC[C@H]1C(=O)N[C@@H](CC(=O)O)C(=O)N[C@@H](CO)C(=O)N[C@H](C(=O)N1CCC[C@H]1C(=O)N[C@@H](Cc1ccc(O)cc1)C(=O)N[C@@H](CCCNC(=N)N)C(=O)N1CCC[C@H]1C(=O)N[C@@H](CCCCN)C(=O)O)C(C)C` [compound 5, CGA-WLA-YRPK dimer (N-ter)], for which the Kd at EphA2 LBD turned out to be 380 ± 80 nM; at EphA2 LBD (Table 3, soluble EphA2 LBD), 21 ± 3 nM. Besides, the “N (binding stoichiometry by ITC)” value on EphA2 LBD (Table 3) is on record as “N = 2.2 ± 0.2”. The “-TΔS” value on EphA2 LBD (Table 6) came to 21.93 ± 0.31 kcal/mol. The N on EphA2 LBD (Table 6, binding stoichiometry) turned out to be 2.2 ± 0.2. Moreover, the “ΔG” value at EphA2 LBD (Table 6, change in Gibbs energy) is -10.41 ± 0.10 kcal/mol. In addition, the “ΔH” value at EphA2 LBD (Table 6, change in enthalpy) was -32.34 ± 0.21 kcal/mol. In addition, the “βu (bias factor βlig)” value on EphA2 (Table 3, reference ligand ephrinA1-Fc (βlig=0)) was 066 ± 0.12. Also, at EphA2 (bias factor, reference ligand ephrinA1Fc), the Blig is 0.81 ± 0.09.
